SMILES,melting point,boiling point,log10 vapour pressure (mmHg),log10 Koc (L/kg),log10 Henry constant (atm·m³/mol),log10 biodegradation half-life (days),ready biodegradability
O=C(O)CCCCCCCCCF,49 °C,,,,,,
O=C(Cl)c1cccc(Cl)c1,,225 °C,-0.854,,,,
Cc1ccccc1Oc1ccccc1,21.7 °C,264 °C,,,,,
C=CCCO,,114 °C,,,,,
Nc1cc2c3ccccc3ccc2c2ccccc12,210 °C,,,5.21,,,
OCCNc1ccccc1,11 °C,280 °C,-2.66,,,,
Cc1cc2ccccc2cc1C,105 °C,268 °C,-2.96,,-3.04,1.18,readily biodegradable
O=C(N[C@H](CO)[C@H](O)c1ccc([N+](=O)[O-])cc1)C(Cl)Cl,150 °C,,,,,,
CCCNC(=O)NS(=O)(=O)c1ccc(Cl)cc1,128 °C,,,,,,
CCCCOC(=O)C(=O)OCCCC,-30.5 °C,241 °C,,,,,
CC(C)COC(=O)c1ccc(C(=O)OCC(C)C)cc1,55 °C,,,,,,
CC(C)COC(OCC(C)C)OCC(C)C,,223 °C,,,,,
C/C=C/C(=O)OC,-42 °C,120 °C,,,,,
S=C=Nc1cccc2ccccc12,58 °C,,,,,,
C=CF,-160 °C,-72 °C,4.3,,,,
O=C1C(Cl)=C(Cl)C(=O)c2ccccc21,195 °C,,-5.96,3.98,,,not readily biodegradable
CC(C)[C@@H](Br)C(=O)O,44 °C,230 °C,,,,,
CCOC(=O)CCC(=O)O,8 °C,,,,,,
Fc1cccnc1,,108 °C,,,,,

SMILES,melting point,boiling point,log10 vapour pressure (mmHg),log10 Koc (L/kg),log10 Henry constant (atm·m³/mol),log10 biodegradation half-life (days),ready biodegradability
Clc1cccc(-c2c(Cl)c(Cl)c(Cl)c(Cl)c2Cl)c1,,,,,-4.7,,
CC1=C(/C=C/C(C)=C/C=C/C(C)=C/C=C/C=C(C)/C=C/C=C(C)/C=C/C2=C(C)CCCC2(C)C)C(C)(C)CCC1,183 °C,,,,,,
CCCCCCCCCCCCCCCCCCc1ccccc1,29 °C,408 °C,,,,,
CCCCCCCCCCCCCCCC[N+](C)(C)CC.[Br-],182 °C,,,,,,
CC/C(=C(/CC)c1ccc(OC)cc1)c1ccc(OC)cc1,124 °C,,,,,,
Nc1ccc(S(=O)(=O)Nc2cnccn2)cc1,251 °C,,,,,,
CCNc1nsc2ccccc12,78 °C,,,,,,
C=COC=C,-101 °C,28.3 °C,2.83,,,,
CCOC(=S)SSC(=S)OCC,30 °C,,,,,,
CCCCCCCCCCCCCCCBr,19 °C,322 °C,-3.83,,,,
CCCCCCCCCCCCCS,,291 °C,-3.16,,,,
Nc1ccc(Cc2ccc(N)c(Cl)c2Cl)c(Cl)c1Cl,,,,,,,not readily biodegradable
Cc1cccc(C)c1N,11.2 °C,215 °C,-0.886,,,,not readily biodegradable
C=C(C)C(C)(C)C,-110 °C,77.9 °C,2.05,,,,
O=C(O)CNCC(=O)O,248 °C,,,,,,
COc1ccc2c3c([nH]c2c1)[C@H]1C[C@H]2[C@H](C[C@@H](O)[C@H](OC)[C@H]2C(=O)O)CN1CC3,242 °C,,,,,,
Oc1cccc(F)c1,13.7 °C,178 °C,,,,,
C=Cc1ccccc1OC,29 °C,197 °C,,,,,
CC(C)CC(C)C(C)C (stereo unspecified),-128 °C,131 °C,1.07,,,0.903,

SMILES,melting point,boiling point,log10 vapour pressure (mmHg),log10 Koc (L/kg),log10 Henry constant (atm·m³/mol),log10 biodegradation half-life (days),ready biodegradability
CCCCCCCCCCCCCCCCCCCCCCCCCCCCO,83.3 °C,,,,,,readily biodegradable
Nc1ncnc2c1ncn2[C@@H]1O[C@@H]2COP(=O)(O)O[C@H]2[C@H]1O,220 °C,,,,,,
CC(=O)CC(C)=O,-23 °C,138 °C,0.471,,,,readily biodegradable
Cc1ccc(C(C)(C)C)c(O)c1,46.5 °C,,,,,,not readily biodegradable
Nc1cccc2c(N)cccc12,190 °C,,,,,,not readily biodegradable
CC(=O)O,16.6 °C,118 °C,1.2,,-7,,readily biodegradable
COC(=O)c1ccccc1C,,215 °C,,,,,
CCCC(=O)c1ccc(Cl)cc1,19.5 °C,,,,,,
CCCCNCC,-78 °C,108 °C,,,,,readily biodegradable
CC(=O)Nc1ccc(S(=O)(=O)O)cc1,,,,,,,not readily biodegradable
COc1cc(C=O)cc(OC)c1O,113 °C,,,,,,readily biodegradable
COc1cc(O)c(C(=O)c2ccccc2)cc1S(=O)(=O)O,145 °C,,,,,,
Sc1ccccc1Cl,,206 °C,,,,,
CC(C)CCCC(C)CCCC(C)CCCCC(C)CCCC(C)CCCC(C)C (stereo unspecified),-38 °C,350 °C,,,,1.62,
CC1(C)CCC(=Cc2ccc(Cl)cc2)C1(O)Cn1cncn1 (stereo unspecified),140 °C,,,,,,
O=[N+]([O-])c1c(F)c(F)c(F)c(F)c1F,,160 °C,,,,,
CCCCOS(=O)OCCCC,,230 °C,,,,,
CN1CCN(CCCN2c3ccccc3Sc3ccc(C(F)(F)F)cc32)CC1.Cl.Cl,240 °C,,,,,,
CCN(CC)CCOC(=O)c1ccc(N)cc1Cl.Cl,177 °C,,,,,,

# — the OPERA property sets (Mansouri et al. 2018)
